“And” between values parts separate entries of the source, which are not always exact repeats. Identical values can stand only once. Toxic doses and inconclusive results are not listed.

The record followed here is PubChem BioAssay AID248 (DTP/NCI, 2004).

This assay deals with L1210 leukemia ip in BDF1 mice, survival T/C. The assay is described as follows: NCI In Vivo Anticancer Drug Screen. Data for tumor model L1210 Leukemia (intraperitoneal) in B6D2F1 (BDF1) mice. The conditions noted are these: endpoint: mean survival time, higher = longer survival. An outline of the steps: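 Survival endpoint. Drug-treated group vs vehicle group, expressed as T divided by C. Tumor passaged by transplantation.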

Where [1] appears, read: dose: 100.0 mg/kg/injection, schedule: Q01DX001 (ip), vehicle: saline.
The mark [2] stands for this setting: dose: 100.0 mg/kg/injection, schedule: Q01DX009 (ip), vehicle: Klucel (hydroxypropylcellulose) (HPC).
Setting [3] is: dose: 200.0 mg/kg/injection, schedule: Q01DX001 (ip), vehicle: saline.
The mark [4] stands for this setting: dose: 200.0 mg/kg/injection, schedule: Q01DX009 (ip), vehicle: Klucel (hydroxypropylcellulose) (HPC).
The mark [5] stands for this setting: dose: 400.0 mg/kg/injection, schedule: Q01DX001 (ip), vehicle: saline.
Where [6] appears, read: dose: 400.0 mg/kg/injection, schedule: Q01DX009 (ip), vehicle: Klucel (hydroxypropylcellulose) (HPC).
The mark [7] stands for this setting: dose: 100.0 mg/kg/injection, schedule: Q04DX003 (ip), vehicle: saline with Tween-80.
Setting [8] is: dose: 200.0 mg/kg/injection, schedule: Q04DX003 (ip), vehicle: saline with Tween-80.
[9] abbreviates: dose: 400.0 mg/kg/injection, schedule: Q04DX003 (ip), vehicle: saline with Tween-80.
[10] abbreviates: dose: 100.0 mg/kg/injection, schedule: Q01DX009 (ip), vehicle: saline.
The mark [11] stands for this setting: dose: 100.0 mg/kg/injection, schedule: Q04DX003 (ip), vehicle: saline.
Where [12] appears, read: dose: 200.0 mg/kg/injection, schedule: Q04DX003 (ip), vehicle: saline.
[13] abbreviates: dose: 400.0 mg/kg/injection, schedule: Q01DX009 (ip), vehicle: saline.
The mark [14] stands for this setting: dose: 200.0 mg/kg/injection, schedule: Q01DX009 (ip), vehicle: saline.
[15] abbreviates: dose: 50.0 mg/kg/injection, schedule: Q01DX009 (ip), vehicle: saline with Tween-80.
The mark [16] stands for this setting: dose: 100.0 mg/kg/injection, schedule: Q01DX009 (ip), vehicle: saline with Tween-80.
[17] abbreviates: dose: 200.0 mg/kg/injection, schedule: Q01DX009 (ip), vehicle: saline with Tween-80.
[18] abbreviates: dose: 100.0 mg/kg/injection, schedule: Q04DX002 (ip), vehicle: Klucel (hydroxypropylcellulose) (HPC).
Where [19] appears, read: dose: 200.0 mg/kg/injection, schedule: Q04DX002 (ip), vehicle: Klucel (hydroxypropylcellulose) (HPC).
Where [20] appears, read: dose: 400.0 mg/kg/injection, schedule: Q04DX002 (ip), vehicle: Klucel (hydroxypropylcellulose) (HPC).
Setting [21] is: dose: 100.0 mg/kg/injection, schedule: Q01DX001 (ip), vehicle: Klucel (hydroxypropylcellulose) (HPC).
[22] abbreviates: dose: 200.0 mg/kg/injection, schedule: Q01DX001 (ip), vehicle: Klucel (hydroxypropylcellulose) (HPC).

Regarding `CC(=O)Oc1ccc(C2(c3ccc(OC(C)=O)cc3)C(=O)Nc3ccccc32)cc1`, the T/C is, setting by setting: under setting [1], 91 % of control; under setting [2], 103 % of control; under setting [3], 92 % of control; under setting [4], 97 % of control; under setting [5], 87 % of control; under setting [6], 104 % of control.
For the compound `CNC(=O)O/N=C/c1cccc(/C=N/OC(=O)NC)c1`, the T/C is 97 % of control under setting [7], 97 % of control under setting [8] and 103 % of control under setting [9].
Turning to `CN(C)Nc1ncnc2nc[nH]c12`, the T/C runs as follows: (dose: 12.5 mg/kg/injection, schedule: Q01DX Z (ip), vehicle: carboxymethylcellulose (CMC)) 98 % of control; (dose: 25.0 mg/kg/injection, schedule: Q01DX Z (ip), vehicle: carboxymethylcellulose (CMC)) 104 % of control; (dose: 50.0 mg/kg/injection, schedule: Q01DX Z (ip), vehicle: carboxymethylcellulose (CMC)) 106 % of control and 115 % of control; (dose: 75.0 mg/kg/injection, schedule: Q01DX001 (ip), vehicle: carboxymethylcellulose (CMC)) 102 % of control; (dose: 100.0 mg/kg/injection, schedule: Q01DX Z (ip), vehicle: carboxymethylcellulose (CMC)) 114 % of control and 118 % of control; (dose: 150.0 mg/kg/injection, schedule: Q01DX001 (ip), vehicle: carboxymethylcellulose (CMC)) 102 % of control. The T/C (dose: 300.0 mg/kg/injection, schedule: Q01DX001 (ip), vehicle: carboxymethylcellulose (CMC)) is 110 % of control.
For the compound `O=C(Cc1ccccc1)NC(CSSCC(NC(=O)Cc1ccccc1)C(=O)O)C(=O)O` (configuration not stated), the T/C was 93 % of control (dose: 88.0 mg/kg/injection, schedule: Q01DX009 (ip), vehicle: Klucel (hydroxypropylcellulose) (HPC)); 100 % of control under setting [10]; 95 % of control under setting [7]; 105 % of control and 97 % of control under setting [11]; 90 % of control (dose: 132.0 mg/kg/injection, schedule: Q01DX009 (ip), vehicle: Klucel (hydroxypropylcellulose) (HPC)); 100 % of control under setting [4]. Besides, the T/C is, setting by setting: under setting [8], 98 % of control; under setting [12], 107 % of control and 100 % of control; under setting [13], 103 % of control; under setting [9], 98 % of control; (dose: 400.0 mg/kg/injection, schedule: Q04DX003 (ip), vehicle: saline) 96 % of control and 100 % of control.
As for `CC(C)CC(=O)Nc1ccc(S(=O)(=O)NCC(C)(C)O)cc1`, the T/C by setting is: under setting [7], 98 % of control; under setting [8], 98 % of control; under setting [9], 95 % of control.
Regarding `C1=C(N2CCOCC2)CCCCC1`, the T/C was 108 % of control under setting [10], 109 % of control under setting [14] and 108 % of control under setting [13].
With `O=C(Nc1cccc(Cl)c1)OCC#CCCl`, the T/C (dose: 50.0 mg/kg/injection, schedule: Q01DX001 (ip), vehicle: saline sonified) is 97 % of control.
Take `COc1ccc(/C=N/NC(=O)c2ccccc2Cl)cc1OC`: the T/C reads like this: under setting [15], 102 % of control; under setting [16], 91 % of control; under setting [17], 88 % of control.
Turning to `CCOc1cc(-c2nc(-c3ccc(N=Cc4ccc(N(CCCOS(C)(=O)=O)CCCOS(C)(=O)=O)cc4)cc3)cs2)ccc1OCc1ccccc1`, the T/C was 92 % of control under setting [16]; 94 % of control under setting [17]; 92 % of control (dose: 400.0 mg/kg/injection, schedule: Q01DX009 (ip), vehicle: saline with Tween-80).
For `CCOc1ccc(N2C(=O)CC(Sc3ccccc3N)C2=O)cc1` (configuration not stated), the T/C runs as follows: under setting [7], 89 % of control; under setting [8], 90 % of control; under setting [9], 88 % of control.
As to `Nc1ccc(C(=O)c2ccc(N)cc2)cc1`, the T/C is 98 % of control under setting [2]; 107 % of control under setting [18]; 120 % of control under setting [4]; 104 % of control under setting [19]; 106 % of control under setting [6]; 96 % of control under setting [20].
For `CC(C)N(C(=S)SC(=S)N(C(C)C)C(C)C)C(C)C`, the T/C is 93 % of control (dose: 50.0 mg/kg/injection, schedule: Q04DX003 (ip), vehicle: Klucel (hydroxypropylcellulose) (HPC)); 90 % of control (dose: 100.0 mg/kg/injection, schedule: Q04DX003 (ip), vehicle: Klucel (hydroxypropylcellulose) (HPC)); 96 % of control (dose: 200.0 mg/kg/injection, schedule: Q04DX003 (ip), vehicle: Klucel (hydroxypropylcellulose) (HPC)).
As for `C=C(CCCC)CNCCOC(=O)c1ccc([N+](=O)[O-])cc1`, the T/C by setting is: (dose: 12.5 mg/kg/injection, schedule: Q04DX003 (ip), vehicle: saline) 98 % of control; (dose: 25.0 mg/kg/injection, schedule: Q04DX003 (ip), vehicle: saline) 93 % of control; (dose: 50.0 mg/kg/injection, schedule: Q04DX003 (ip), vehicle: saline) 100 % of control.
As to `O=C(O)/C(=C\c1ccccc1)c1cccc2ccccc12`, the T/C is, setting by setting: under setting [2], 100 % of control; under setting [4], 98 % of control.
In the case of `CCOC(=O)N/N=C(/C)OCC`, the T/C runs as follows: under setting [11], 102 % of control; under setting [12], 102 % of control.
As for `C=C(Cl)CNN1CCOCC1`, the T/C (dose: 25.0 mg/kg/injection, schedule: Q01DX009 (ip), vehicle: saline with Tween-80) was 96 % of control; the T/C (dose: 25.0 mg/kg/injection, schedule: Q04DX003 (ip), vehicle: saline with Tween-80) is 95 % of control; the T/C under setting [15] is 98 % of control; the T/C (dose: 50.0 mg/kg/injection, schedule: Q04DX003 (ip), vehicle: saline with Tween-80) is 97 % of control; the T/C under setting [16] was 114 % of control; the T/C under setting [7] was 98 % of control and 111 % of control. For the same compound, the T/C under setting [8] is 94 % of control.
For the compound `O=C(NC(C(=O)SC1=NC=NC2=NC=NC21)C(SC1=NC=NC2=NC=NC21)c1cccnc1)c1ccccc1` (configuration not stated), the T/C (dose: 37.5 mg/kg/injection, schedule: Q01DX Z (ip), vehicle: saline) was 153 % of control.
Regarding `Cc1cc(C)c(NC(=O)Nc2ccc(Cl)c(Cl)c2)cc1C`, the T/C was 93 % of control under setting [18], 96 % of control under setting [19] and 93 % of control under setting [20].
Take `c1ccc2c(c1)oc1ccccc12`: the T/C reads like this: under setting [1], 102 % of control; under setting [3], 102 % of control; under setting [5], 96 % of control.
Consider `O=C(COc1ccc(Cl)c(Cl)c1)NCCc1ccncc1`, for which the T/C (dose: 50.0 mg/kg/injection, schedule: Q04DX002 (ip), vehicle: Klucel (hydroxypropylcellulose) (HPC)) was 103 % of control; the T/C under setting [18] is 118 % of control; the T/C under setting [19] was 111 % of control.
With `CC(CC=O)CCCC(C)(C)O` (configuration not stated), the T/C is 102 % of control under setting [10], 102 % of control under setting [14] and 93 % of control under setting [13].
`CC(=O)Nc1c(C)c(NC(C)=O)c(C)c(NC(C)=O)c1C`: the T/C is 90 % of control (dose: 75.0 mg/kg/injection, schedule: Q01DX001 (ip), vehicle: Klucel (hydroxypropylcellulose) (HPC)); 94 % of control (dose: 75.0 mg/kg/injection, schedule: Q01DX009 (ip), vehicle: Klucel (hydroxypropylcellulose) (HPC)); 101 % of control (dose: 150.0 mg/kg/injection, schedule: Q01DX001 (ip), vehicle: Klucel (hydroxypropylcellulose) (HPC)); 92 % of control (dose: 300.0 mg/kg/injection, schedule: Q01DX001 (ip), vehicle: Klucel (hydroxypropylcellulose) (HPC)).
Turning to `NC(=O)NC1CCCCC1`, the T/C was 87 % of control under setting [7], 97 % of control under setting [8] and 92 % of control under setting [9].
Regarding `O=C(NCc1ccccc1)NCc1ccccc1`, the T/C under setting [21] is 112 % of control; the T/C under setting [22] is 97 % of control; the T/C (dose: 400.0 mg/kg/injection, schedule: Q01DX001 (ip), vehicle: Klucel (hydroxypropylcellulose) (HPC)) is 105 % of control.
As for `Cc1cc(C)c(F)c(-c2c(N)c(C)cc(C)c2F)c1N`, the T/C is 106 % of control (dose: 50.0 mg/kg/injection, schedule: Q01DX001 (ip), vehicle: Klucel (hydroxypropylcellulose) (HPC)); 101 % of control under setting [21]; 96 % of control under setting [22].
